# Measurements published in ChEMBL document CHEMBL1139113, “Inhibition of the mitochondrial F1F0-ATPase by ligands of the peripheral benzodiazepine receptor” (Bioorg Med Chem Lett, 2007).
# Legend:
# [1] = test system: Jurkat; experiment: Induction of cell death in Jurkat cells after 24 hrs; type: functional, cell-based; settings: Homo sapiens
# [2] = test system: Jurkat; experiment: Induction of reactive oxygen species response in Jurkat cells after 1 hr; type: functional, cell-based; settings: Homo sapiens
# [3] = test system: Ramos; experiment: Induction of cell death in Ramos cells after 24 hrs; type: functional, cell-based; settings: Homo sapiens
# [4] = test system: Ramos; experiment: Induction of reactive oxygen species response in Ramos cells after 1 hr; type: functional, cell-based; settings: Homo sapiens
# [5] = Inhibition of F1F0-ATPase synthesis activity in bovine submitochondrial particles; design: species or system Bos taurus
# [6] = Inhibition of F1F0-ATPase hydrolysis activity in bovine submitochondrial particles; design: species or system Bos taurus
# [7] = test system: Jurkat; experiment: Induction of cell death in Jurkat cells at 75 uM in presence of Mn(III)tetrakis(4-benzoic acid)porphyrin after 24 hrs; type: functional, Homo sapiens
# [8] = test system: Jurkat; experiment: Induction of cell death in Jurkat cells at 75 uM after 24 hrs; type: functional, Homo sapiens
# [9] = test system: Jurkat; experiment: Induction of reactive oxygen species response in Jurkat cells at 75 uM after 1 hr; type: functional, Homo sapiens
# [10] = test system: Jurkat; experiment: Induction of reactive oxygen species response in Jurkat cells at 75 uM in presence of Mn(III)tetrakis(4-benzoic acid)porphyrin after 1 hr; type: functional, Homo sapiens
# [11] = test system: Jurkat; experiment: Induction of reactive oxygen species response in Jurkat cells at 75 uM in presence of Vitamin E after 1 hr; type: functional, Homo sapiens
# [12] = test system: Jurkat; experiment: Induction of cell death in Jurkat cells at 75 uM in presence of Vitamin E after 24 hrs; type: functional, Homo sapiens
SMILES,EC50 [1] [µM],EC50 [2] [µM],EC50 [3] [µM],EC50 [4] [µM],EC50 [5] [µM],EC50 [6] [µM],Activity [7] [%],Activity [8] [%],Activity [9] [%],Activity [10] [%],Activity [11] [%],Activity [12] [%]
CN1C(=O)CN=C(c2ccccc2)c2cc(Cl)ccc21 [DIAZEPAM],170,200,250,170,210,> 300,,,,,,
CCC(C)N(C)C(=O)c1cc2ccccc2c(-c2ccccc2Cl)n1 (stereo unspecified) [PK-11195],75,56,90,100,33,230,68.9,85.5,67.9,39.7,33.9,55.9
O=C1CN=C(c2ccccc2Cl)c2cc([N+](=O)[O-])ccc2N1 [CLONAZEPAM],> 300,> 300,> 300,> 300,120,240,,,,,,
CN1C(=O)CN=C(c2ccc(Cl)cc2)c2cc(Cl)ccc21 [RO-54864],> 300,230,130,180,210,> 300,,,,,,
CN1C(=O)C(Cc2ccc3ccccc3c2)N=C(c2ccc(O)cc2)c2cc(Cl)ccc21 (stereo unspecified),6,10,6.3,7.3,5.5,8.9,,,,,,
